# Tests used:
# [1] = tested on: Bacillus subtilis ATCC6633; experiment: Bioassay development: growth in 2xTY medium with serial dilutions of antibiotic, OD600; type: cell-based; details: 16 hours
# Protocol: (§1) The bacterial strains Escherichia coli ESS, Bacillus subtilis ATCC6633 and Micrococcus luteus ATCC9341 were grown overnight in 2×TY-medium at 30° C. and 280 rpm. After 16 hours of growth, the OD^600 was measured. Typically, the OD^600 amounts 5.0, ranging from 2.0 to 8.0.
# (§2) A solution of amoxicillin was made at a concentration of 7 mg/ml. Subsequently, serial dilutions were made ranging from 1 mg/l down to 0.001 mg/l. MilliQ water served as a negative control.
# (§3) In a 96 wells microplate, 25 μl of the serial dilutions were pipetted in the wells. Each microplate was prepared in duplicate. The overnight bacterial cultures were diluted in fresh 2×TY-medium to a final OD^600 of 0.01. To each well, 150 μl of the diluted bacterial cultures was added. The microplates were covered with a lid, and incubated overnight at 25° C. and the duplicate microplate at 37° C.
# (§4) After 16 hours of incubation, the OD^600 was read in a microplate reader. From the results, the concentration of amoxicillin still allowing uninhibited growth of the test microorganisms can be read.
# (§5) A solution of ampicillin was made at a concentration of 7 mg/ml. Subsequently, serial dilutions were made ranging from 1 mg/l down to 0.001 mg/l. MilliQ water served as a negative control.
# as §3, with “gas permeable adhesive seal,” for “lid,”
# (§6) After 16 hours of incubation, the OD^600 was read in a microplate reader. From the results, the concentration of ampicillin still allowing uninhibited growth of the test microorganisms can be read.
# [2] = tested on: Micrococcus luteus ATCC9341; experiment: as above; type: cell-based; details: 16 hours
# Protocol: as §1, §2, §3, §4, §5
# as §3, with “gas permeable adhesive seal,” for “lid,”
# as §6
# [3] = tested on: Escherichia coli ESS (DS10031); experiment: as above; type: cell-based; details: 16 hours
# Protocol: as §1, §2, §3, §4, §5
# as §3, with “gas permeable adhesive seal,” for “lid,”
# as §6
# IPNS = details: Huffman et al. J. Med. Chem. 1992; cited from earlier work
molecule,measurement,setting,value
"CC1(C)S[C@@H]2[C@H](NC(=O)[C@H](N)c3ccc(O)cc3)C(=O)N2[C@H]1C(=O)O [Amoxicillin, amoxicillin]",Concentration of amoxicillin still allowing uninhibited growth in 2xTY medium,[1]; at 25° C.,1.0 mg/L
same,Concentration of amoxicillin still allowing uninhibited growth in 2xTY medium,[1]; at 37° C.,5 mg/L
same,Concentration of amoxicillin still allowing uninhibited growth in 2xTY medium,[2]; at 25° C.,0.001 mg/L
same,Concentration of amoxicillin still allowing uninhibited growth in 2xTY medium,[2]; at 37° C.,0.002 mg/L
same,Concentration of amoxicillin still allowing uninhibited growth in 2xTY medium,[3]; at 25° C.,0.1 mg/L
same,Concentration of amoxicillin still allowing uninhibited growth in 2xTY medium,[3]; at 37° C.,0.1 mg/L
"CC1(C)S[C@@H]2[C@H](NC(=O)[C@H](N)c3ccccc3)C(=O)N2[C@H]1C(=O)O [Ampicillin, ampicillin]",Concentration of ampicillin still allowing uninhibited growth in 2xTY medium,[1]; at 25° C.,0.5 mg/L
same,Concentration of ampicillin still allowing uninhibited growth in 2xTY medium,[1]; at 37° C.,2.5 mg/L
same,Concentration of ampicillin still allowing uninhibited growth in 2xTY medium,[2]; at 25° C.,0.001 mg/L
same,Concentration of ampicillin still allowing uninhibited growth in 2xTY medium,[2]; at 37° C.,0.002 mg/L
same,Concentration of ampicillin still allowing uninhibited growth in 2xTY medium,[3]; at 25° C.,0.05 mg/L
same,Concentration of ampicillin still allowing uninhibited growth in 2xTY medium,[3]; at 37° C.,0.05 mg/L
CC(C)[C@@H](NC(=O)[C@H](CS)NC(=O)Cc1ccc(O)cc1)C(=O)O [p-hydroxyphenylacetyl-L-cysteinyl-D-valine],Antibiotic activity after treatment of the substrate with IPNS,IPNS,not to result in antibiotic activity
m-COOH-DL-phenylglycyl-L-cysteinyl-D-valine,Antibiotic activity after treatment of the substrate with IPNS,IPNS,not to result in antibiotic activity

# From patent US8293511B2, “Production of β-Lactam antibiotics” (DSM IP Assets B.V., priority 2006, dated 2012)
